Experimental data reported in ChEMBL document CHEMBL3885861, “Open TG-GATES”.

Species on record: Rattus norvegicus
Assay: Open TG-GATES - Regimen: Single
Format: toxicity, organism-based, Sprague-Dawley
Set-up: regimen Single, gender Male, age 6 weeks
Details: in vivo, iv, route intravenous injection; for APTT / Bas / Eos / Fbg / Hb / Ht / Lym / MCH / MCHC / MCV / Mono / Neu / Plat / RBC / Ret / WBC / PT: tissue Blood; for KIDNEY_L / KIDNEY_R / KIDNEY_TOTAL: tissue Kidney; for LIVER: tissue Liver
[1] = 1 mg/kg, 9 h, dose level Middle
[2] = 1 mg/kg, 9 h, tissue Plasma, dose level Middle
[3] = 1 mg/kg, 24 h, dose level Middle
[4] = 1 mg/kg, 24 h, tissue Plasma, dose level Middle
[5] = 3 mg/kg, 3 h, tissue Plasma, dose level High

## CISPLATIN
[1]
  TERMINAL_BW: 214.2 g
  APTT: 23.6 s
  Bas: 0%
  Eos: 0.4%
  Fbg: 267.8 mg/dL
  Hb: 12.7 g/dL
  Ht: 39.1%
  Lym: 81.8%
  MCH: 20.6 pg
  MCHC: 32.4%
  MCV: 63.7 fL
  Mono: 2.2%
  Neu: 15%
  Plat: 132.5 x10_4/uL
  RBC: 613.6 x10_4/ul
  Ret: 6.7%
  WBC: 93.8 x10_2/uL
  KIDNEY_L: 1 g
  KIDNEY_R: 1 g
  KIDNEY_TOTAL: 2 g
  LIVER: 9 g
[2]
  ALP: 1312 IU/L
  ALT: 39.2 IU/L
  AST: 73 IU/L
  CRE: 0.1 mg/dL
  Ca: 11 mg/dL
  DBIL: 0 mg/dL
  GLC: 179.2 mg/dL
  IP: 9.9 mg/dL
  K: 4.2 meq/L
  Na: 139.6 meq/L
  PL: 120.6 mg/dL
  RALB: 2.9 g/dL
  TBIL: 0.028 mg/dL
  TC: 67 mg/dL
  TG: 51.8 mg/dL
  TP: 5.3 g/dL
  gamma-GTP: 1.4 IU/L
[3]
  TERMINAL_BW: 213.8 g
  Bas: 0%
  Eos: 0.8%
  Fbg: 329 mg/dL
  MCH: 21 pg
  MCHC: 32.9%
  MCV: 63.9 fL
  Mono: 3%
  Neu: 16%
  PT: 16 s
  Plat: 128.4 x10_4/uL
  RBC: 631.8 x10_4/ul
  Ret: 5.2%
  WBC: 100.8 x10_2/uL
  KIDNEY_L: 1 g
  KIDNEY_R: 1 g
  KIDNEY_TOTAL: 2.1 g
[4]
  ALT: 46 IU/L
  BUN: 15.4 mg/dL
  CRE: 0.2 mg/dL
  DBIL: 0 mg/dL
  GLC: 183.2 mg/dL
  IP: 7.7 mg/dL
  K: 4.4 meq/L
  LDH: 163.4 IU/L
  PL: 143.6 mg/dL
  RALB: 3.1 g/dL
  TBIL: 0.014 mg/dL
  TC: 78.6 mg/dL
  TG: 85.8 mg/dL
  TP: 5.7 g/dL
  gamma-GTP: 1.6 IU/L
3 mg/kg, 3 h, dose level High
  TERMINAL_BW: 219.6 g
  APTT: 22.3 s
  Bas: 0%
  Eos: 1%
  Fbg: 271 mg/dL
  Hb: 12.7 g/dL
  Ht: 39%
  Lym: 78.4%
  MCV: 65.3 fL
  Mono: 2.8%
  PT: 15.9 s
  Plat: 130.5 x10_4/uL
  RBC: 596.8 x10_4/ul
  Ret: 6.7%
  WBC: 97.6 x10_2/uL
  KIDNEY_L: 1 g
  KIDNEY_R: 1 g
  KIDNEY_TOTAL: 1.9 g
  LIVER: 9.7 g
[5]
  ALP: 1622.8 IU/L
  ALT: 43.4 IU/L
  AST: 80.6 IU/L
  CRE: 0.2 mg/dL
  DBIL: 0 mg/dL
  GLC: 177.6 mg/dL
  IP: 9 mg/dL
  K: 4.2 meq/L
  LDH: 166.2 IU/L
  Na: 139.4 meq/L
  PL: 115 mg/dL
  RALB: 2.8 g/dL
  TBIL: 0.026 mg/dL
  TC: 64.8 mg/dL
  TG: 63.6 mg/dL
  TP: 5.2 g/dL
  gamma-GTP: 1.6 IU/L
3 mg/kg, 6 h, dose level High
  TERMINAL_BW: 210.6 g
